Data as given in patent US20230065816A1, “METHODS FOR PREVENTING AND REVERSING OPIOID ANALGESIC TOLERANCE IN SUBJECTS WITH CHRONIC PAIN” (The Reasearch Foundation for Suny, priority 2020, published 2023).
“Also recorded” adds a separate entry of the source.

What was measured:
[1] = tested on: rats with spinal nerve ligation (SpNL); assay: von Frey mechanical allodynia test, tolerance from chronic systemic morphine (s.c. morphine pellets); conditions: for reversal of spinal morphine antiallodynic tolerance induced by chronic systemic morphine, single agent: CSD or S-CSD 10 μg, PP2 or PP3 300 ng, i.t. on day 8, 45 min before i.t. morphine; for prevention of antiallodynic tolerance to chronic systemic morphine, male rats / prevention of antiallodynic tolerance to chronic systemic morphine, female rats: i.t. 45 min before s.c. morphine pellet implantation on days 1, 3, 5; for prevention of antiallodynic tolerance to chronic systemic morphine, male rats: 10 μg; for prevention of antiallodynic tolerance to chronic systemic morphine, female rats: dose 6 μg or 10 μg
[2] = tested on: rats with spinal nerve ligation (SpNL); assay: von Frey mechanical allodynia test, spinal morphine tolerance from chronic i.t. morphine; conditions: for reversal of spinal morphine antiallodynic tolerance by the single agent: CSD 10 μg or PP2 300 ng i.t. 45 min before i.t. morphine on day 8 or 9 of daily i.t. 15 μg morphine; for reversal of spinal morphine antiallodynic tolerance by the single agent / duration of reversal of morphine tolerance by the single agent: FIGS. 3A, 3B; for duration of reversal of morphine tolerance by the single agent: CSD 10 μg or PP2 300 ng i.t.
rats [3] = assay: tail flick latency test, tolerance from chronic systemic morphine (s.c. morphine pellets); conditions: i.t. CSD with s.c. morphine pellets; FIG. 4B
rats [4] = assay: tail flick latency test, spinal morphine tolerance from chronic i.t. morphine; conditions: 9 days of daily 15 μg i.t. morphine

With `CC(C)(C)n1nc(-c2ccc(Cl)cc2)c2c(N)ncnc21` [PP2, 3-(4-chlorophenyl) 1-(1,1-dimethylethyl)-1H-pyrazolo[3,4-d]pyrimidin-4-amine] the “duration of tolerance-reversing effect” value ([1]; CSD 10 μg or PP2 300 ng i.t. on day 8, chronic systemic morphine, FIGS. 6A, 6B) was “less than 24 hours”, the “reversal of spinal morphine antiallodynic tolerance induced by chronic systemic morphine, single agent” value ([1]; FIGS. 6A, 6B) was “essentially fully restored i.t. morphine antiallodynic action; also recorded: fully restored i.t. morphine antiallodynic effects” and the “reversal of spinal morphine antiallodynic tolerance by the single agent” value [2] was “attenuated spinal opioid antiallodynic tolerance”. For the same compound, the “duration of reversal of morphine tolerance by the single agent” value ([2]; chronic i.t. morphine) was “lasted for multiple days” and the “share of opioid naive i.t. morphine responsiveness restored” value ([2]; PP2 300 ng i.t. 45 min before i.t. morphine, chronic i.t. morphine, FIG. 3B) was “approximately 60%”.

For “H-Arg-Gln-Ile-Lys-Ile-Trp-Phe-Gln-Asn-Arg-Arg-Met-Lys-Trp-Lys-Lys-Trp-Gly-Ille-Asp-Lys-Ala-Ser-Phe-Thr-Thr-Phe-Thr-Val-Thr-Lys-Tyr-Trp-Phe-Arg-Tyr-OH (H-RQIKIWFQNRRMKWKKWGIDKASFTTFTVTKYWFRY-OH) [S-CSD]”, the “reversal of spinal morphine antiallodynic tolerance induced by chronic systemic morphine, single agent” value ([1]; FIGS. 6A, 6B) was “failed to alter antiallodynic action of i.t. morphine; also recorded: had no effect”, the “prevention of antiallodynic tolerance to chronic systemic morphine, male rats” value ([1]; FIG. 4C) was “failed to alter morphine tolerance development” and the “prevention of antiallodynic tolerance to chronic systemic morphine, female rats” value ([1]; FIG. 4A) was “remained minimal; also recorded: failed to alter morphine tolerance development”.

With “H-Arg-Gln-Ile-Lys-Ile-Trp-Phe-Gln-Asn-Arg-Arg-Met-Lys-Trp-Lys-Lys-Asp-Gly-Ile-Trp-Lys-Ala-Ser-Phe-Thr-Thr-Phe-Thr-Val-Thr-Lys-Tyr-Trp-Phe-Tyr-Arg-OH (H-RQIKIWFQNRRMKWKKDGIWKASFTTFTVTKYWFYR-OH) [CSD]” the “persistence of antinociceptive tolerance blockade after the last i.t. treatment (day 5), tail flick” value (rats [3]) was 2 days, the “reversal of spinal morphine antiallodynic tolerance induced by chronic systemic morphine, single agent” value ([1]; FIGS. 6A, 6B) was “essentially fully restored i.t. morphine antiallodynic action” and the “reversal of tolerance and effect of reapplication of i.t. CSD, male rat” value ([1]; i.t. 6 μg CSD on day 9, reapplication on day 12, morphine pellets, FIG. 7 right panel) was “lasted through day 10; also recorded: again restored morphine antiallodynia”. For the same compound, the “prevention of antiallodynic tolerance to chronic systemic morphine, male rats” value ([1]; FIG. 4C) was “works identical in males as in females; also recorded: fully manifest”, the “prevention of antiallodynic tolerance to chronic systemic morphine, female rats” value ([1]; FIG. 4A) was “increase to cutoff in von Frey thresholds; also recorded: fully manifest” and the “unmasking of antiallodynia of on boarded morphine pellet in systemic morphine tolerant animals” value ([1]; i.t. CSD 0.33 μg, virtually no pretreatment with i.t. morphine) was “unmasked robust morphine (from on boarded morphine pellet) antiallodynia”. For the same compound, the “prevention of tolerance and effect of reapplication of i.t. CSD, female rats” value ([1]; i.t. CSD 6 μg before morphine pelleting, last on day 5, re-applied on day 11, FIG. 7 left panel) was “prevented morphine tolerance development; also recorded: morphine antiallodynia was fully manifest”, the “reversal of tolerance at lower dose of CSD” value ([1]; i.t. CSD 3, 1, or 0.33 μg, chronic systemic morphine, data not shown) was “Full reversal of tolerance development” and the “persistence of tolerance blockade after the last i.t. treatment (day 5), female rats” value ([1]; i.t. CSD on days 1, 3, 5 with s.c. morphine pellets, FIG. 4A) was 3 days. The “persistence of tolerance blockade after the last i.t. treatment (day 5), male rats” value ([1]; i.t. CSD on days 1, 3, 5 with s.c. morphine pellets, FIG. 4C) was 3 days, the “reversal of spinal morphine antiallodynic tolerance by the single agent” value [2] was “fully restored i.t morphine antiallodynia; also recorded: tolerance reversal was complete” and the “duration of reversal of morphine tolerance by the single agent” value ([2]; chronic i.t. morphine) was “lasted for multiple days”.

With `Nc1ncnc2c1cnn2-c1ccccc1` [PP3, 1-Phenyl-1H-pyrazolo[3,4-d]pyrimidin-4-amine] the “reversal of spinal morphine antiallodynic tolerance induced by chronic systemic morphine, single agent” value ([1]; FIGS. 6A, 6B) was “failed to alter antiallodynic action of i.t. morphine; also recorded: devoid of any effect”.

`CN1CC[C@]23c4c5ccc(O)c4O[C@H]2[C@@H](O)C=C[C@H]3[C@H]1C5` [morphine, (5a,6a)-7,8-didehydro-4,5-epoxy-17-methylmorphinan-3,6-diol] was tested, and the “i.t. morphine antiallodynia ED50, opioid naive rats” value ([1]; before pelleting, FIG. 5) was 5.5 µg, the “fold increase of i.t. morphine ED50 in tolerant vs. opioid naive rats” value ([1]; chronic systemic morphine, FIG. 5) was 3.6 fold and the “reduction of i.t. morphine antiallodynic effects by chronic systemic morphine” value ([1]; day 7 of morphine pelleting, before PP2, FIG. 6B) was “approximately 80%”. The “i.t. morphine antiallodynia ED50, chronic systemic morphine-treated (tolerant) rats” value ([1]; s.c. morphine pellets, FIG. 5) was 19.7 µg, the “i.t. morphine antiallodynia ED50, morphine naive rats” value ([2]; FIG. 1B) was 3.9 µg and the “i.t. morphine antiallodynia ED50, morphine tolerant rats” value ([2]; after chronic daily i.t. morphine, FIG. 1B) was 13.1 µg. For the same compound, the “times more morphine required in tolerant than in naive rats for comparable antiallodynia” value ([2]; chronic daily i.t. morphine, FIG. 1B) was 3.4 times, the “antiallodynic responsiveness to i.t. morphine after chronic daily i.t. morphine (tolerance)” value ([2]; i.t. morphine 15 μg daily, 6 to 9 days, no CSD/PP2) was “complete loss of antiallodynic responsiveness; also recorded: lost most of its antiallodynic effectiveness” and the “analgesic effect of i.t. morphine after chronic daily i.t. morphine (tolerance), tail flick” value (rats [4]) was “lost most of its analgesic effect”.
